Tested on: a strain of at least one of the organisms listed (panel of Gram-positive organisms and Gram-negative strains)
Experiment: organism not typed
Format: cell-based
Conditions: read-out: MIC (minimum inhibitory concentration)

`O=c1ccc2ccc(F)c3c2n1CC3CN1CCC(NC[C@H]2COc3ccnnc3O2)CC1` (mixture of isomers) [Example 62, (1R/S)-1-[(4-{[(7S)-6,7-dihydro[1,4]dioxino[2,3-c]pyridazin-7-ylmethyl]amino}-1-piperidinyl)methyl]-9-fluoro-1,2-dihydro-4H-pyrrolo[3,2,1-ij]quinolin-4-one] showed an MIC of at most 4 µg/mL.

— US20080221110A1 (priority 2005, published 2008)
